Assay results from patent US20240209011A1, “HETEROAROMATIC PHOSPHONIUM SALTS FOR TREATING CANCER” (FLORATEK PHARMA S.A., priority 2021, published 2024).
Marks after values point to notes of the source that are not given here.

Assays:
endometrial PDX = experiment: Activity against endometrial PDX; type: cell-based; conditions: endometrial PDX growth; text summary of Table 9
Protocol: (§1) PDX-derived cell cultures were obtained from tumors explanted from mice and isolated by mechanical and enzymatic dissociation. […] Cells were harvested and seeded in 96-wells plates at a density of 1.25 to 5×10^3 cells/well for cytotoxicity assays. Cells were incubated 48 h at 37° C. prior to addition of test molecules and vehicle (DMSO, 0.1%) at desired final concentrations. Cell viability was assessed before drugs' addition (To) and 5 days after test molecules addition by measuring ATP cell content using CellTiter-Glo® Luminescent Cell Viability Assay (Promega) according to the manufacturer's instructions. Luciferase activity was measured on a luminometer (PerkinElmer® EnVision™). Each concentration of compounds was tested in triplicate.
(§2) Viability was calculated as a percentage of ATP value compared to vehicle treated controls.
(§3) For PDX primary cell cultures, the tumour tissue was washed with PBS containing antibiotic-antimycotic and non-tumour tissue and necrotic tumour tissues were separated. The tumour tissue was transferred to a new dish and cut into 1-2 mm^3 fragments, resuspended in RPMI-1640 medium and centrifuged at 1,200 rpm for 6 min at room temperature. The pelleted material was resuspended with 15 mL of Tumour Cell Digestion Solution and incubated at 37° C. for 1 hour with agitation. Following further addition of media, centrifugation and passage through a […] cell strainer, the homogenous cell mixture was layered onto 15 mL of Ficoll-Paque PLUS in a 50 mL conical tube and centrifuged for 15 min at 1,600 rpm. The interface cells were collected, washed with media, separated by centrifugation at 1,200 rpm. The cell pellet was resuspended in serum free media supplemented with growth factors. 10,000 cells/wells were plated in a 96 well plate and incubated at 37° C., 5% CO2, 95% air and 100% relative humidity overnight. The cytotoxicity assay was conducted as above. IC50 values represent absolute IC50.

lung carcinoma cell = experiment: Activity against lung carcinoma cells; type: cell-based; conditions: lung carcinoma cell growth; text summary of Tables 14A-14C
Protocol: Antitumor activity of the compounds and doxorubicin as a positive control was assessed by using the CellTiter-Blue Cell Viability Assay (Promega, #G8082) or CellTiter-Glow® Luminescent Cell Viability assay (Promega #G7572) according to the manufacturer's instructions. The compounds were tested at 5 or 6 concentrations in half-log increments (highest concentration 30 μM or 100 μM) in duplicate or triplicate well conditions.
Tumor cells were grown at 37° C. in a humidified atmosphere with 5% CO2 in RPMI 1640 or DMEM medium, supplemented with 10% (v/v) fetal calf serum and 50 μg/ml gentamicin for up to 20 passages, and were passaged once or twice weekly. Cells were harvested using TrypLE or PBS buffer containing 1 mM EDTA, and the percentage of viable cells is determined using a CASY Model TI cell counter (OMNI Life Science). Cells were harvested from exponential phase cultures, counted and plated in 96 well flat-bottom microtiter plates at a cell density depending on the cell line's growth rate (4,000-20,000 cells/well depending on the cell line's growth rate, up to 60,000 for hematological cancer cell lines) in RPMI 1640 or DMEM medium supplemented with 10% (v/v) fetal calf serum and 50 μg/ml gentamicin (140 μl/well). Cultures were incubated at 37° C. and 5% CO2 in a humidified atmosphere. After 24 h, 10 μl of test compounds or control medium were added, and left on the cells for another 72 h. Compounds were serially diluted in DMSO, transferred in cell culture medium, and added to the assay plates. The DMSO concentration was kept constant at <0.3% v/v across the assay plate. Viability of cells was quantified by the CellTiter-Blue® cell viability assay (Promega G8081) or CellTiter-Glow® Luminescent Cell Viability assay (Promega #G7572). Fluorescence (FU) was measured by using the EnSpire® multimode plate reader (Perkin Elmer) (excitation X=570 nm, emission λ=600 nm). Luminescence was measured with a microplate luminometer (Promega or PerkinElmer).
Sigmoidal concentration-response curves were fitted to the data points (test-versus-control, T/C values) obtained for each tumor model using 4 parameter non-linear curve fit (Charles River DRS Datawarehouse Software) or with GraphPad prism 5.02 software. IC50 values are reported as absolute IC50 values, being the concentration of test compound at the intersection of the concentration-response curves with T/C=50% Cell lines tested are presented in Table 1.

[1] = system: SCLC doxorubicin resistant cell line H69AR; experiment: Cell viability assay (CellTiter-Blue/CellTiter-Glow); type: cell-based; conditions: Homo sapiens, absolute IC50, 72 h
Procedure, shortened: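 72 h viability assay in RPMI 1640 or DMEM plus 10% FCS; seeding density set by growth rate (4,000-20,000 cells/well). CellTiter-Blue or CellTiter-Glo endpoint, absolute IC50 at T/C=50%.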

pancreatic PDX = experiment: Activity against pancreatic PDX; type: cell-based; conditions: pancreatic PDX growth; summary of Table 20
Protocol: as §1, §2, §3

K562 CDX = experiment: In vivo tumour inhibition of xenograft leukemia model K562; conditions: K562 CDX in NOG mice; for Optimal T/C (value): day 17 after tumour transplantation, median tumour volume treated/control; for tumour growth inhibition: i.p. daily, T/C at day 17 after tumour transplantation
Protocol: In vivo activity against a number of CDX were evaluated in various nude or SCID mice. Tumour cells were inoculated subcutaneous (s.c) into the mice flank. Mice were randomized into groups when tumours were around 100-200 mm^3. A vehicle control group (2.5-4% DMSO, 5% EtOH, 20% PEG200 in saline) was part of each experiment. Treatment was administered intraperitoneally (i.p.) 3 times a week or daily (qd).
Body weight was measured before each treatment and treatments of individual mice was paused, when the body weight loss was >15%. Tumor volumes were measured 2×/week. Mice were individually sacrificed, when the tumor volume reached the volume specified in the laboratory internal SOP.
The tumour inhibition growth was assessed as the optimal T/C, where T represents the median tumour volume of the treated group and C represents the median tumour volume of the control (vehicle) group. Statistical analysis was performed using two way RM ANOVA with p values […] considered statistically significant.
Test compounds were evaluated for the in vivo inhibition activity against the chronic myelogenous leukemia CDX in NOG mice. 1×10^7 cells were injected s.c. into the left flank at day 0. Mice were stratified into groups of 10 mice each with a mean tumor volume of 109±35 mm^3 and the treatment was administered i.p. daily.

SMILES | IC50 (lung carcinoma cell) | Weight loss (%) (K562 CDX; 10 mg/kg/inj i.p. qd) | Weight loss (%) (K562 CDX; 5 mg/kg/inj i.p. qd) | IC50 (endometrial PDX) | IC50 [1] | IC50 (pancreatic PDX) | Optimal T/C (value) (K562 CDX; 10 mg/kg/inj i.p. qd) | tumour growth inhibition (K562 CDX) | Optimal T/C (value) (K562 CDX; 5 mg/kg/inj i.p. qd)
CCNC(=O)Oc1ccc2c(=O)cc(-c3ccc(CCCC[P+](c4ccccc4)(c4ccccc4)c4ccccc4)cc3)oc2c1OC(=O)NCC.[Br-] [SND124, 4-[4-[7,8-Bis(ethylcarbamoyloxy)-4-oxo-chromen-2-yl]phenyl]-butyltriphenylphosphonium bromide] | < 20 µM | – | – | < 20 µM | – | < 20 µM | – | – | –
CCNC(=O)Oc1ccc2c(=O)cc(-c3ccc(CCCC[P+](c4ccccc4)(c4ccccc4)c4ccccc4)cc3)oc2c1O.[Br-] [SND126A, 4-[4-[7-(Ethylcarbamoyloxy)-8-hydroxy-4-oxo-chromen-2-yl]phenyl]butyltriphenylphosphonium bromide] | – | – | – | < 20 µM | – | < 20 µM | – | – | –
CC(C)NC(=O)Oc1ccc2c(=O)cc(-c3ccc(CCCC[P+](c4ccccc4)(c4ccccc4)c4ccccc4)cc3)oc2c1O [SND127, 4-[4-[7-(Isopropylcarbamoyloxy)-8-hydroxy-4-oxo-chromen-2-yl]phenyl]butyltriphenylphosphonium bromide] | < 20 µM | – | – | – | – | – | – | – | –

Now from value to molecule, other results behind:

IC50 (lung carcinoma cell) | Weight loss (%) (K562 CDX; 10 mg/kg/inj i.p. qd) | Weight loss (%) (K562 CDX; 5 mg/kg/inj i.p. qd) | SMILES | IC50 (endometrial PDX) | IC50 [1] | IC50 (pancreatic PDX) | Optimal T/C (value) (K562 CDX; 10 mg/kg/inj i.p. qd) | tumour growth inhibition (K562 CDX) | Optimal T/C (value) (K562 CDX; 5 mg/kg/inj i.p. qd)
< 20 µM | – | – | O=c1cc(-c2ccc(CCCC[P+](c3ccccc3)(c3ccccc3)c3ccccc3)cc2)oc2c3c(ccc12)OCO3.[Br-] [SND123, 4-[4-(6-oxo-[1,3]dioxolo[4,5-h]chromen-8-yl)phenyl]butyl-triphenylphosphonium bromide] | < 20 µM | 11.8 µM | < 20 µM | – | – | –
< 20 µM | 8% | – | O=c1cc(-c2ccc(CCCC[P+](c3ccccc3)(c3ccccc3)c3ccccc3)cc2)oc2c(O)c(O)ccc12 [SND118, 4-[4-(7,8-dihydroxy-4-oxo-chromen-2-yl)phenyl]butyltriphenyl-phosphonium bromide] | – | – | – | 58*** | significantly inhibited tumour growth | –
< 20 µM | – | 5% | COc1c(O)ccc2c(=O)cc(-c3ccc(CCCC[P+](c4ccccc4)(c4ccccc4)c4ccccc4)cc3)oc12.[Br-] [SND140, (4-(4-(7-hydroxy-8-methoxy-4-oxo-4H-chromen-2-yl)phenyl)butyl)triphenylphosphonium bromide] | < 20 µM | 14.6 µM | < 20 µM | – | significantly inhibited tumour growth | 69*
